The values that follow come from ChEMBL document CHEMBL1201862, “PubChem BioAssay data set” (2004).

Some test systems named below: SW-620; SF-268; HCT-15; OVCAR-3; OVCAR-8; NCI-H460; HT-29; UO-31; HCC 2998; TK-10; COLO 205; LOX IMVI; HCT-116; OVCAR-4; OVCAR-5; SR.
Holding throughout (assay): inhibition of tumour cell growth, NCI panel, 48 h

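Protocol summary: plate cells (96-well), add compound at 5 concentrations, incubate 48 h, interpolate endpoints linearly. Here, GI50 denotes the concentration required for 50% inhibition of growth.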 Calls of active or inactive are those of the source. Rule as the data show it: active = GI50 up to about 1.1 µM and inactive = higher. Some results are limits rather than exact numbers.

For `N#CCc1nc2c(s1)C(=O)c1ccccc1C2=O`, the GI50 with SW-620 is 19.1 µM (inactive); in the assay on SF-268, 15.9 µM (inactive); in the assay with HCT-15, 16.3 µM; in the assay with OVCAR-3, 15.8 µM (inactive); in the assay with OVCAR-8, 10.8 µM (inactive); with NCI-H460 it was 21.7 µM (inactive). For the same molecule, the GI50 is 22.8 µM (inactive) in the assay on HT-29; 15.5 µM (inactive) in the assay on UO-31; 19.9 µM (inactive) in the assay on HCC 2998; 21.8 µM (inactive) in the assay with TK-10; 18.7 µM (inactive) in the assay with COLO 205; 13.5 µM (inactive) with LOX IMVI. Besides, the results for the GI50 with HCT-116, in the assay on OVCAR-4 and in the assay on OVCAR-5 were 14.3 µM (inactive), 16.9 µM (inactive) and 22.6 µM (inactive), respectively.
As for `COc1ccc(/C=N/N=C(\N)NO)c(OC)c1`, the GI50 is 45.4 µM (inactive) in the assay on SW-620; 48.3 µM (inactive) in the assay on SF-268; 26.9 µM with HCT-15; 37.7 µM (inactive) in the assay with OVCAR-3; 61 µM (inactive) in the assay with OVCAR-8; 13.8 µM (inactive) in the assay with UO-31. In addition, the GI50 in the assay with HCC 2998 was 12.2 µM (inactive); in the assay on COLO 205, 49.7 µM (inactive); with LOX IMVI, 24.7 µM (inactive); in the assay on HCT-116, 52 µM (inactive); in the assay on OVCAR-4, > 100 µM (inactive); with OVCAR-5 it was 9.77 µM (inactive).
For the molecule `CCN(CC)CC(C(=O)Nc1c(C)cccc1C)/C(C)=N\NC(=S)NN` (stereo unspecified), the GI50 in the assay with SW-620, in the assay on SF-268, in the assay with OVCAR-3, with OVCAR-8, in the assay on NCI-H460 and with HT-29 was > 100 µM (inactive) in each case. The GI50 with UO-31, in the assay on HCC 2998, with TK-10, in the assay with COLO 205, in the assay on LOX IMVI and in the assay with HCT-116 was > 100 µM (inactive) each time. In addition, in the assay on OVCAR-5, the GI50 is > 100 µM (inactive).
Turning to `c1c[nH]c(Cc2nc(Cc3c[nH]cn3)c[nH]2)n1`, the GI50 is 6.73 µM (inactive) in the assay on SW-620; 4.65 µM (inactive) with SF-268; 4.58 µM in the assay with HCT-15; 55.8 µM (inactive) with OVCAR-3; 33.5 µM (inactive) with OVCAR-8; 24 µM (inactive) in the assay on NCI-H460. In addition, the GI50 was 4.12 µM (inactive) with HT-29; 2.74 µM (inactive) in the assay on HCC 2998; 67.5 µM (inactive) with TK-10; 5.37 µM (inactive) with COLO 205; 16.5 µM (inactive) in the assay on LOX IMVI; 29.5 µM (inactive) in the assay with HCT-116. Also, the GI50 was 4.45 µM (inactive) in the assay on OVCAR-4 and 1.53 µM (inactive) in the assay on OVCAR-5.
As for `COc1cc(/C=C\c2ccncc2)cc(OC)c1OC`, the GI50 with SW-620 is 43.2 µM (inactive); in the assay on SF-268 it was > 100 µM (inactive); in the assay on HCT-15, 55.7 µM; with OVCAR-3, > 100 µM (inactive); in the assay on OVCAR-8 it was > 100 µM (inactive); with NCI-H460, 46.6 µM (inactive). Further, the GI50 in the assay with HT-29 was 40.6 µM (inactive); with UO-31, 72.3 µM (inactive); with TK-10, > 100 µM (inactive); in the assay with COLO 205 it was 42.1 µM (inactive); with LOX IMVI it was 44.2 µM (inactive); in the assay with HCT-116, 99.1 µM (inactive). In addition, the GI50 in the assay on OVCAR-4 was > 100 µM (inactive); with OVCAR-5, 63.5 µM (inactive).
Turning to `Clc1cc2nc[nH]c2cc1Cl`, the GI50 is > 100 µM (inactive) with SW-620; > 100 µM (inactive) in the assay with SF-268; above 100 µM in the assay on HCT-15; > 100 µM (inactive) with OVCAR-3; > 100 µM (inactive) in the assay on OVCAR-8; > 100 µM (inactive) with NCI-H460. Further, the GI50 in the assay on HT-29 was > 100 µM (inactive); with UO-31, 48.2 µM (inactive); with HCC 2998, > 100 µM (inactive); in the assay with TK-10, > 100 µM (inactive); in the assay with COLO 205, > 100 µM (inactive); in the assay with LOX IMVI, > 100 µM (inactive). Also, the GI50 in the assay with OVCAR-4 and in the assay on OVCAR-5 was > 100 µM (inactive) in each case.
Regarding `CC1=CP(=O)(c2ccccc2)C=C(C)C1=C(Cl)Cl` (stereo unspecified), the GI50 is 3.82 µM (inactive) in the assay with SW-620; 3.98 µM (inactive) in the assay with SF-268; 16 µM (inactive) with OVCAR-3; 10.9 µM (inactive) in the assay with OVCAR-8; 3.35 µM (inactive) in the assay with NCI-H460; 3.55 µM (inactive) with HT-29. Also, the GI50 in the assay with HCC 2998 is 15 µM (inactive); in the assay on TK-10 it was 4.68 µM (inactive); with COLO 205, 4.45 µM (inactive); with LOX IMVI, 4.05 µM (inactive); in the assay on HCT-116, 3.2 µM (inactive); in the assay with OVCAR-4, 12.9 µM (inactive).
Regarding `O=C1C2Nc3ccccc3SC2C(=O)N1c1ccc(Br)cc1` (stereo unspecified), the GI50 was 45 µM (inactive) in the assay on SW-620; 73.1 µM (inactive) in the assay with SF-268; 78.7 µM in the assay with HCT-15; 23.7 µM (inactive) in the assay with OVCAR-3; 37.4 µM (inactive) with OVCAR-8; 47 µM (inactive) with NCI-H460. For the same molecule, the GI50 in the assay with HT-29 was 36.1 µM (inactive); in the assay on UO-31, 18.4 µM (inactive); in the assay on HCC 2998, 45.8 µM (inactive); in the assay on TK-10, 28.8 µM (inactive); in the assay on COLO 205, 55.5 µM (inactive); in the assay with LOX IMVI it was 27.9 µM (inactive). The GI50 in the assay with OVCAR-4 was 12.8 µM (inactive); with OVCAR-5 it was > 100 µM (inactive).
As for `CC1(C)COC(C2(C)C(=O)C=C(c3ccccc3)c3ccccc32)=N1` (stereo unspecified), the GI50 is 81.8 µM (inactive) in the assay with SW-620; 58.2 µM (inactive) with SF-268; 27.4 µM with HCT-15; 30.4 µM (inactive) in the assay on OVCAR-3; 46.8 µM (inactive) with OVCAR-8; 36.9 µM (inactive) in the assay on NCI-H460. Moreover, the GI50 with HT-29 was 30.5 µM (inactive); with UO-31, 28.3 µM (inactive); in the assay on TK-10, 93.8 µM (inactive); in the assay on SR, 37.2 µM (inactive); in the assay on COLO 205 it was 42.6 µM (inactive); with HCT-116 it was 44.1 µM (inactive). Also, the GI50 in the assay on OVCAR-4 is 34.8 µM (inactive).
As to `CC(C)(C)C(=O)C(c1ccc(-c2cscn2)cc1)c1ccc(-c2cscn2)cc1`, the GI50 is > 100 µM (inactive) in the assay with SW-620; 25.5 µM (inactive) with SF-268; above 95.1 µM with HCT-15; 28.1 µM (inactive) in the assay on OVCAR-3; 16.7 µM (inactive) with OVCAR-8; 40.5 µM (inactive) in the assay with NCI-H460. In addition, the GI50 in the assay with HT-29 is 72.3 µM (inactive); in the assay on UO-31, 44.4 µM (inactive); in the assay on HCC 2998 it was > 100 µM (inactive); with TK-10, 31.9 µM (inactive); in the assay on COLO 205 it was > 89.7 µM (inactive); in the assay with LOX IMVI it was > 69.2 µM (inactive). The GI50 with HCT-116 is 44 µM (inactive); in the assay on OVCAR-4, 3.25 µM (inactive); with OVCAR-5, > 100 µM (inactive).
On to `CCOC(=O)NC(=O)c1cn(C2CCCCC2)c(=O)[nH]c1=O`, for which the GI50 in the assay on SW-620 was 17.4 µM (inactive); in the assay on SF-268, > 100 µM (inactive); in the assay with HCT-15, 53.8 µM; in the assay with OVCAR-3, > 100 µM (inactive); in the assay on OVCAR-8, > 100 µM (inactive); in the assay with NCI-H460 it was 32.2 µM (inactive). The GI50 was 6.67 µM (inactive) in the assay on HT-29; 56 µM (inactive) in the assay on UO-31; 53.6 µM (inactive) in the assay with HCC 2998; > 100 µM (inactive) in the assay with TK-10; 98.9 µM (inactive) in the assay with COLO 205; 9.75 µM (inactive) in the assay with LOX IMVI. Besides, the values for the GI50 in the assay with HCT-116, with OVCAR-4 and in the assay with OVCAR-5 were 5.11 µM (inactive), 67.6 µM (inactive) and > 100 µM (inactive), respectively.
